Data as given in patent US7879881B2, “Piperidinyl compounds that selectively bind integrins” (Janssen Pharmaceutica NV, priority 2002, dated 2011).
Read-outs that look alike come from different tables or passages of the source.

How the values were obtained:
[1] = target: T1, human purified αVβ5 (Homo sapiens, UniProt P06756+P18084); assay: In Vitro Solid Phase Purified αcβ5 Binding Assay (vitronectin/αVβ5); conditions: vitronectin binding to immobilized purified human αVβ5, mean ± spread
T1 construct: purchased Chemicon International, Inc
T1 sequence (P06756 31-889 limits assumed): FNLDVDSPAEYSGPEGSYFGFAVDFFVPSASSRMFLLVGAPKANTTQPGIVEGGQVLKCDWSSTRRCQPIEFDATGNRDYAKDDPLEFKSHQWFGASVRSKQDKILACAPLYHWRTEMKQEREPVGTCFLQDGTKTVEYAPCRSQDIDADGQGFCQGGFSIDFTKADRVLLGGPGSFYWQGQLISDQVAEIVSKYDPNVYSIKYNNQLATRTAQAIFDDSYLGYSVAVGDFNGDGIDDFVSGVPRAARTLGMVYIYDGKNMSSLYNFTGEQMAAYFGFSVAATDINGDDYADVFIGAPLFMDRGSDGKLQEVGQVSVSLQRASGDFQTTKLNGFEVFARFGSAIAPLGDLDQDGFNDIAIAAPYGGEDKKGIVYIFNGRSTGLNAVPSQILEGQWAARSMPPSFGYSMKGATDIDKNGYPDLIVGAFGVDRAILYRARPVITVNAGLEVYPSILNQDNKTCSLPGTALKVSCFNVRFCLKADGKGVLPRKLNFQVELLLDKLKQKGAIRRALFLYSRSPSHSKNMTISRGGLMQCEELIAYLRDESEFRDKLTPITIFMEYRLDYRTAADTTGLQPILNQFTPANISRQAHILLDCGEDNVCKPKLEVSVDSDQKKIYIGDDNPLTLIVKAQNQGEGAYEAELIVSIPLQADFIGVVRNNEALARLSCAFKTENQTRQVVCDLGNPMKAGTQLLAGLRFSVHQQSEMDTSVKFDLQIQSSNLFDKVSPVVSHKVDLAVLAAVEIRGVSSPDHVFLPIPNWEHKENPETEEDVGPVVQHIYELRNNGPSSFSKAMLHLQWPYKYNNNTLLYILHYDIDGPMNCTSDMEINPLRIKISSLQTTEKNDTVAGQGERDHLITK
T1 sequence (P06756 891-1048 partner limits assumed): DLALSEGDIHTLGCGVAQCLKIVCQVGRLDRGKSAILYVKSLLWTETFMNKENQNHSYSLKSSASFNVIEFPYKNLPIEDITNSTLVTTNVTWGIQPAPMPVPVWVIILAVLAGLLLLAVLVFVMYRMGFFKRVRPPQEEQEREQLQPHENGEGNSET
T1 sequence (P18084 24-799): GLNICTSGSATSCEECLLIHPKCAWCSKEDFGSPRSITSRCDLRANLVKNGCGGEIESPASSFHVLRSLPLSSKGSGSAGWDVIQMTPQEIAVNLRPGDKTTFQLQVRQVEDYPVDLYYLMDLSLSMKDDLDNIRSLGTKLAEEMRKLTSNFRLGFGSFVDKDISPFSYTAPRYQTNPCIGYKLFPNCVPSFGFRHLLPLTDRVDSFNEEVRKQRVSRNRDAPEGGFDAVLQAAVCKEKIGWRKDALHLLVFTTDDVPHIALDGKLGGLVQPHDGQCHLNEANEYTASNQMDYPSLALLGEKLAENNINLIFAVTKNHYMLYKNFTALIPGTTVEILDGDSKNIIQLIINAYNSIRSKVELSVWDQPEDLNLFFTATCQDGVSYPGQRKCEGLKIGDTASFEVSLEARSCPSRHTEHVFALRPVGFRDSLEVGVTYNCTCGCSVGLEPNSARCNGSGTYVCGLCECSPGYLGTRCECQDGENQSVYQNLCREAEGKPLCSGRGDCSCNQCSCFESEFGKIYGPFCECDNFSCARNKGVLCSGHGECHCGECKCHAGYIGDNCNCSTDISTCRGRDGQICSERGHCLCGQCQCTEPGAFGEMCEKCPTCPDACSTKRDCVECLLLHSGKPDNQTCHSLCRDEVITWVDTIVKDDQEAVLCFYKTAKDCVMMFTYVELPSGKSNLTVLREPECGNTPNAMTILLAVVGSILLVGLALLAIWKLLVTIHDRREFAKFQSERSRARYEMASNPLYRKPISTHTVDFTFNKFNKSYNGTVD
Outline: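 Purified human integrin immobilized at 1 μg/ml in Tris buffer with Ca2+, Mg2+, Mn2+ and NaCl, then BSA-blocked. Compounds added just before 2 nM vitronectin, 3 h at 37 °C. Bound vitronectin detected by anti-vitronectin antibody with biotin/peroxidase (ABC) detection at 490 nm.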

[2] = target: GP IIb/IIIa (Homo sapiens, UniProt P05106+P08514); assay: In Vitro Solid Phase Purified GP IIb/IIIa Binding Assay (biotinylated fibrinogen); conditions: biotinylated fibrinogen binding to immobilized purified GP IIb/IIIa, mean ± spread
Chain of GP IIb/IIIa (P08514 32-887 limits assumed): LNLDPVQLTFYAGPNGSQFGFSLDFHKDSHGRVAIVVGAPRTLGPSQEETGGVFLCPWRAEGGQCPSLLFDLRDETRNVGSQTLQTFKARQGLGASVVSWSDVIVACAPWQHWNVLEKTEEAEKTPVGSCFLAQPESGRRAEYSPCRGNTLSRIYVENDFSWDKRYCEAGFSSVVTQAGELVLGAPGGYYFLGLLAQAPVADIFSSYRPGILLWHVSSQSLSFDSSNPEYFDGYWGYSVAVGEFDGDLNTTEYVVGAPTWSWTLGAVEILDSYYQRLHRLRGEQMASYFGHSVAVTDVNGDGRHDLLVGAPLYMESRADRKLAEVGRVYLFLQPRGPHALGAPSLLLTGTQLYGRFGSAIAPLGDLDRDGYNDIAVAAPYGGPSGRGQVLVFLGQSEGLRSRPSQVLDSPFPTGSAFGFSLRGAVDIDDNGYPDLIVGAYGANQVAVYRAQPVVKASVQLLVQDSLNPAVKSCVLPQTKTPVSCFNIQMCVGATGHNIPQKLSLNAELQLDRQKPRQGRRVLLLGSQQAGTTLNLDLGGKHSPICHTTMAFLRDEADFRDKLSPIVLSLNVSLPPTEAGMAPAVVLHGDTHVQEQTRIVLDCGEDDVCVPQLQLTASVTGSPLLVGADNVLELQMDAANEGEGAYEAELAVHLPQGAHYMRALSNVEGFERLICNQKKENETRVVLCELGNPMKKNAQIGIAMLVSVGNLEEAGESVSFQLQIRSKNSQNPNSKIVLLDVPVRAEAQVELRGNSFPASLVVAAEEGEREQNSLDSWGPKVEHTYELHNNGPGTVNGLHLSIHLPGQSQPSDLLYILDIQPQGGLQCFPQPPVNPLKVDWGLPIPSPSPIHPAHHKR
Chain of GP IIb/IIIa (P08514 891-1039 partner limits assumed): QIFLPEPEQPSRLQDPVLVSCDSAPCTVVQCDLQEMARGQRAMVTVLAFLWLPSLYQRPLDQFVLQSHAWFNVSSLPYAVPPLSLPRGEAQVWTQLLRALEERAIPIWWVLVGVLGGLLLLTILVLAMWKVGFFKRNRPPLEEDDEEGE
Chain of GP IIb/IIIa (P05106 27-788): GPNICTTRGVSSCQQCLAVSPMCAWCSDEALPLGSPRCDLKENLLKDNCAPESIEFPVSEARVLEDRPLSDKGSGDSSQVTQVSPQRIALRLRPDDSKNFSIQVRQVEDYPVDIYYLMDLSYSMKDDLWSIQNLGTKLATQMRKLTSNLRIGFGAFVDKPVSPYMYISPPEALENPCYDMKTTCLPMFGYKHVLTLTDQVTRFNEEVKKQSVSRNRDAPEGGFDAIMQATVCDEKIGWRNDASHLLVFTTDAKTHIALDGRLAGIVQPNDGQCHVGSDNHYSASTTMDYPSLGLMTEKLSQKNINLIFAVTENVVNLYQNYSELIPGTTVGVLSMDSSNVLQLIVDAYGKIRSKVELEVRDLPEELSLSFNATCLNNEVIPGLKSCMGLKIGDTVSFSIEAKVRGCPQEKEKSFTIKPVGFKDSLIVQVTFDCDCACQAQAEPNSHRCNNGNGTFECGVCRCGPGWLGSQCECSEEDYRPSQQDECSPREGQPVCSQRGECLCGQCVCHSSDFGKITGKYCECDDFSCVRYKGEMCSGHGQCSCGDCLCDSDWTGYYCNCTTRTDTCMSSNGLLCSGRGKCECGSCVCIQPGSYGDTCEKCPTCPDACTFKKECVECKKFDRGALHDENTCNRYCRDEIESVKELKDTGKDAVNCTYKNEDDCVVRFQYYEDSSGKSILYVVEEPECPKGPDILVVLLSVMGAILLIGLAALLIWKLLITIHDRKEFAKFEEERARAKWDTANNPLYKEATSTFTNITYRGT
Outline: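 Purified GP IIb/IIIa coated overnight at 4° C, blocked with 5% BSA, then incubated with test compound and biotinylated fibrinogen for 2-4 h at RT in modified Tyrodes buffer. Bound fibrinogen detected with avidin-biotin HRP complex and o-phenylenediamine/H2O2 (citrate/phosphate pH 5.3), stopped with 2 N H2SO4.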

[3] = target: T2, Human αvβ3 (Homo sapiens, UniProt P05106+P06756); assay: In Vitro Solid Phase Purified αvβ3 Binding Assay (vitronectin/αvβ3); conditions: vitronectin binding to immobilized purified human αvβ3, mean ± spread
T2 construct: purchased Chemicon International Inc., Temecula, Calif
T2 sequence (P06756 31-889 limits assumed): as the sequence (P06756 31-889 limits assumed) above
T2 sequence (P06756 891-1048 partner limits assumed): as the sequence (P06756 891-1048 partner limits assumed) above
T2 sequence (P05106 27-788): as the sequence (P05106 27-788) above
Outline: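 Purified human αvβ3 immobilized at 1 μg/ml in Tris buffer with Ca, Mg and Mn; compounds competed with 2 nM vitronectin for 3 h at 37 °C. Bound vitronectin detected by anti-vitronectin antibody and peroxidase ABC, absorbance at 490 nm.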

SMILES | IC50 ([1]; αvβ5 IC50 (uM)) [µM] | IC50 ([2]; αIIbβ3 IC50 (uM)) [µM] | IC50 ([3]; αvβ3IC50 (uM)) [µM] | IC50 ([1]; read-out: αvβ5 IC50) [µM] | IC50 ([2]; read-out: αIIbβ3 IC50) [µM] | IC50 ([3]; read-out: αvβ3IC50) [µM]
O=C(O)CC(C1CCN(C(=O)CCCc2ccc3c(n2)NCCC3)CC1)C1CNc2ccccc2C1 (stereo not drawn) [Cpd 5, 1,2,3,4-Tetrahydro-β-[1-[1-oxo-4-(5,6,7,8-tetrahydro-1,8-naphthyridin-2-yl)butyl]-4-piperidinyl]-3-quinolinepropanoic acid] | 0.261 ± 0.0569 | 14.8 ± 0.68 | 0.0037 ± 0.0014 | – | – | –
O=C(O)CC(CCC1CCN(C(=O)c2cccc(NC3=NCC(O)CN3)c2)CC1)c1cnc2ccccc2c1 (stereo not drawn) [Cpd 49, β-[2-[1-[3-[(1,4,5,6-tetrahydro-5-hydroxy-2-pyrimidinyl)amino]benzoyl]-4-piperidinyl]ethyl]-3-quinolinepropanoic acid] | – | – | – | 0.0895 ± 0.0255 | 0.16 ± 0.02 | 0.0018 ± 0.0005
